Like-named read-outs stand apart in the source and are kept apart here.
What was measured:
SH-SY5Y cells [1] = test: cells; format: cell-based, human; settings: for EC50: MTT
[2] = ABTS radical scavenging assay; format: biochemical; settings: for IC50: 30-min incubation; for ABTS Assay TEAC50: Equivalent antioxidant capacity at Trolox 50 mM; for ABTS Assay TEAC100: Equivalent antioxidant capacity at Trolox 100 mM
Experimental: The mixture was stored in the dark at room temperature for 16 h. […] All the compounds tested were dissolved in EtOH. […] The degree of decolorization was calculated as the percentage reduction of absorbance. […] Trolox was used as a reference antioxidant.

[3] = Ferric reducing antioxidant power (FRAP) assay; format: biochemical; set-up: FRAP Assay Trolox Equivalents: unit not given here; settings: for FRAP Assay Antioxidant Capacity (%) at 100 uM: compound at 100 uM; for FRAP Assay Antioxidant Capacity (%) at 200 uM: compound at 200 uM
Experimental: FRAP reagent was prepared by mixing 10 mL of 300 mM acetate buffer with 1 mL of 10 mM 2,4,6-tripyridyl-S-triazine (TPTZ) in HCl 40 mM and 1mL of FeCl3·6H2O 20 mM. […] Trolox was used as assay control.

[4] = Kinetic solubility by UV spectrometry; format: physicochemical; settings: PBS 50 mM, aqueous buffer, kinetic from dmso stock
Experimental: A modified protocol was used from that described by Hoelke et al. for the determination of the kinetic solubility from DMSO compound solutions. A compound calibration curve (compound concentration vs UV absorption) was prepared for each compound with concentrations of 10, 20, 50, 100, and 200 µM. Each compound dilution was carried out by pipetting defined volumes of a 20 mM stock compound solution in DMSO into vials and adding PBS 50 mM to reach a final volume of 1 mL/well. The final amount of DMSO per well was 2%. For the lower compound concentrations, an additional volume of DMSO was added to each well to reach 2% DMSO. Then, 200 µL of each dilution was transferred to a new 96-well culture plate for the measurement of the UV-spectra. One well in each row was left without a compound as a blank, and its UV absorbance was used as an offset correction. The experiments were performed in duplicate.
In parallel, compound saturation solutions were reached and filtered from 20 mM compound stock in DMSO: 10 µL of a 20 mM stock solution was dispensed into 190 µL of PBS 10 mM. The solutions were mixed, shaken on a microplate shaker for two hours, and then 160 µL of each solution was filtered and transferred to a new well plate for UV absorption measurement.
Measurement of the UV-spectra was performed using a Varioskan microplate reader, and spectra were taken in the range of 270–600 nm. Spectral bandwidth was set to 5 nm, and the data pint interval was 10 nm. The experiments were carried out in triplicate.

[5] = Chemical reactivity with H2O2; format: physicochemical; settings: H2O2 500 µM, 37 °C, 4 h, DMEM:F12 without cells
Experimental: In our case, before running the protection experiments under oxidative stress conditions, we carried out experiments to assess the potential reactivity of compounds 9, 11, 13, and 18 at four different concentrations (5, 10, 20, and 40 µM) with H2O2 500 µM at 37 °C for 4 h in DMEM:F12 (without phenol red, FBS, and cells). Curcumin was used as a control compound.

SH-SY5Y cells [6] = test: Cytotoxicity, MTT assay, SH-SY5Y; format: cell-based; settings: Homo sapiens, MTT, cytotoxicity, read-out: SH-SY5Y IC50
Experimental: (§1) All compounds tested were dissolved and eventually further diluted in dimethylsulfoxide (DMSO). After overnight incubation, the cells were treated with different compound concentrations (5, 10, 20, 50, 100, 150, 200 µM) in a final volume of 200 µL with four replicates each. […] Cell proliferation or viability was measured using the 3-(4,5-dimethylthiazol-2-yl)-2,5-diphenyl tetrazolium bromide (MTT) assay. The MTT assay was optimized taking into account the number of cells plated per well, to work in the linear part of the cell density vs. MTT absorbance calibration curve, which allows achieving a maximum absorbance in the range of 0.8–1.0 in each well at the end of the experiment. In addition to that, the number of cells seeded for each experiment was optimized in agreement with the time scale of the experiment.
(§2) After cell treatment, 20 µL of MTT (5 mg/mL) was added to each well, and the plate was incubated at 37 °C in the dark for 2 h. Supernatants were removed, and the formazan crystals were solubilized in DMSO (200 µL/well), under 10 min shaking at room temperature. The reduction of MTT was quantified by absorbance at 570 nm in a Varioskan microplate reader (Thermo Fisher Scientific, Vantaa, Finland). Effects of the test compounds on cell viability were calculated using cells treated with a vehicle as a control. For IC50 and LD50 calculations, the data were subjected to linear regression analysis, and the regression lines were plotted for the best fit. The IC50 (inhibition of cell viability) concentrations were calculated using the respective dose–response curves.

HepG2 cells = test: Cytotoxicity, MTT assay, HepG2; format: cell-based; settings: Homo sapiens, HepG2; MTT, cytotoxicity; read-out: HepG2 IC50
Experimental: as §1, §2

SH-SY5Y cells [7] = test: LDH release under H2O2; format: cell-based, human; settings: H2O2 250 µM 24 h; compounds 24 h before; Figure 9
SH-SY5Y cells [8] = test: Neuroprotection against H2O2-induced oxidative stress, MTT; settings: H2O2 250 µM 24 h; compounds 5-50 µM 24 h before; Figure 8
SH-SY5Y cells [9] = test: Neuroprotection in the MPP+ neurotoxicity-induced model, MTT; format: cell-based, human; settings: MPP+ 700 µM 48 h; compounds 24 h before
SH-SY5Y cells [10] = test: Neuroprotection in the 6-OHD neurotoxicity-induced model, MTT; format: cell-based, human; settings: 6-OHD 250 µM 48 h; compounds 24 h before
SH-SY5Y cells [11] = test: Intracellular ROS levels (DCFH2-DA); format: cell-based, human; settings: 400 µM H2O2 4 h; compounds 24 h before
Experimental: Intracellular ROS levels were determined using dichlorofluorescein diacetate (DCFH2-DA) according to Wang et al.. DCFH2-DA is cleaved by intracellular esterases and is oxidized by ROS to form the fluorescent compound DCF, which represents the ROS level. Therefore, 3 × 10^3 SH-SY5Y cells were seeded in 96-well culture black clear bottom plates and after 24 h were treated with the test compound for an additional 24 h. Then, they were exposed to H2O2 for 4 h. After the incubation period, cells were washed twice with Hanks buffer and loaded with 20 µM DCFH2-DA (in FBS-free culture medium) for 40 min in dark at 37 °C in a CO2 incubator. At the end of the dye incubation period, they were washed twice with Hanks buffer to remove the extracellular DCFH2-DA. Fluorescence was measured with a Varioskan microplate reader at λex = 485 nm and λem = 535 nm wavelengths. Results are expressed as a percentage of the fluorescent increase compared with that of the control. All the experiments were performed at least three times in quadruplicate for each compound concentration.

SH-SY5Y cells [12] = test: Mitochondrial membrane potential (JC-1); format: cell-based, human; settings: 400 µM H2O2 4 h; compounds 24 h before at different concentrations
Experimental: The fluorescent dye 5,5′,6,6′-tetrachloro-1,1′,3,3′-tetraethylbenzimidazolylcarbocyanine iodide (JC-1) was used for measuring MMP [89]. A decrease in fluorescence intensity represents mitochondrial membrane depolarization. For fluorescence ratio detection under oxidative stress conditions, 96-well culture black clear bottom plates were seeded with 3 × 10^3 SH-SY5Y cells, and after 24-h incubation, they were treated with the test compound and left out for 24 h. Then, the cells were exposed to different H2O2 concentrations for 4 h. After the incubation period, the cells were washed twice with Hanks buffer and then stained with 5 µM JC-1 in culture media in the dark in a CO2 incubator at 37 °C for 20 min. At the end of the dye incubation period, cells were washed three times with Hanks buffer, and 200 µL of fresh buffer was added. Cells were analyzed with a Varioskan microplate reader. J-aggregate red fluorescence intensity was measured at λex = 535 nm and λem = 595 nm, while λem = 485 nm and λem = 535 nm was used for J-monomer green fluorescence. Results were expressed as the ratio of fluorescence intensity of J-aggregates to J-monomers. All the experiments were performed three times in quadruplicate for each compound concentration.

SH-SY5Y cells [13] = test: Resazurin cell viability assay under H2O2; format: cell-based, human; settings: 24-h incubation, resazurin

NCCc1cc(O)c(O)cc1O [Compound 6-OHD, 6-hydroxydopamine]
EC50 (SH-SY5Y cells [1]; Homo sapiens, SH-SY5Y, 6-OHD 48 h, read-out: concentration at which the cell viability was reduced by 50%): 250 µM

O=C1CC(c2ccccc2)=Nc2cc(F)ccc2N1 [Compound 13, 7-Fluoro-4-phenyl-H-1,5-benzodiazepin-2(3H)-one]
IC50 [2]: 325 ± 55 µM | ABTS Assay TEAC50 [2]: 0.36 | ABTS Assay TEAC100 [2]: 0.19 | FRAP Assay Trolox Equivalents [3]: 0.79 | FRAP Assay Antioxidant Capacity (%) at 100 uM [3]: 40.7% | FRAP Assay Antioxidant Capacity (%) at 200 uM [3]: 61.6% | solubility [4]: < 20 µM | melting point: 205.7 °C | Reaction with H2O2 [5]: did not show any significant reaction | IC50 (SH-SY5Y cells [6]): > 250 µM | IC50 (HepG2 cells): > 250 µM

O=C1CC(c2ccccc2)=Nc2cc(F)c(F)cc2N1 [Compound 9, 7,8-Difluoro-4-phenyl-1H-1,5-benzodiazepin-2(3H)-one]
IC50 [2]: 432 ± 68 µM | ABTS Assay TEAC50 [2]: 0.36 | ABTS Assay TEAC100 [2]: 0.18 | FRAP Assay Trolox Equivalents [3]: 0.43 | FRAP Assay Antioxidant Capacity (%) at 100 uM [3]: 21.9% | FRAP Assay Antioxidant Capacity (%) at 200 uM [3]: 37.1% | solubility [4]: < 50 µM | LDH leakage (SH-SY5Y cells [7]): reduced LDH leakage to some degree | Reaction with H2O2 [5]: did not show any significant reaction | IC50 (SH-SY5Y cells [6]): > 250 µM | IC50 (HepG2 cells): > 250 µM

O=C1CC(c2ccccc2)=Nc2ccc(F)cc2N1 [Compound 11, 8-Fluoro-4-phenyl-1H-1,5-benzodiazepin-2(3H)-one]
IC50 [2]: 306 ± 34.6 µM | ABTS Assay TEAC50 [2]: 0.35 | ABTS Assay TEAC100 [2]: 0.17 | Neuroprotection effect, cell viability (MTT) (SH-SY5Y cells [8]): high variable neuroprotection results at concentrations higher than 10 µM | FRAP Assay Trolox Equivalents [3]: 0.56 | FRAP Assay Antioxidant Capacity (%) at 100 uM [3]: 28.9% | FRAP Assay Antioxidant Capacity (%) at 200 uM [3]: 49.8% | solubility [4]: < 20 µM | Reaction with H2O2 [5]: did not show any significant reaction | IC50 (SH-SY5Y cells [6]): > 250 µM | IC50 (HepG2 cells): > 250 µM

C[n+]1ccc(-c2ccccc2)cc1 [MPP^+, 1-Methyl-4-phenylpyridinium]
EC50 (SH-SY5Y cells [1]; MPP+ 48 h, read-out: concentration that resulted in 50% cell viability): 700 µM

COc1cc(C2=Nc3ccccc3NC(=O)C2)cc(OC)c1OC [Compound 20, 4-(3,4,5-Trimethoxyphenyl)-1H-1,5-benzodiazepin-2(3H)-one]
IC50 [2]: 269 ± 27.2 µM | ABTS Assay TEAC50 [2]: 0.34 | ABTS Assay TEAC100 [2]: 0.18 | Neuroprotection effect, cell viability (MTT) (SH-SY5Y cells [8]): significantly improved | FRAP Assay Trolox Equivalents [3]: 0.90 | FRAP Assay Antioxidant Capacity (%) at 100 uM [3]: 48.1% | FRAP Assay Antioxidant Capacity (%) at 200 uM [3]: 63.8% | solubility [4]: > 200 µM | Neuroprotection, cell viability (MTT), MPP+ model (SH-SY5Y cells [9]): dose-dependent neuroprotection | Neuroprotection, cell viability (MTT), 6-OHD model (SH-SY5Y cells [10]): significant neuroprotection | LDH leakage (SH-SY5Y cells [7]): reduced LDH leakage to some degree | Intracellular ROS level reduction (SH-SY5Y cells [11]): lower ROS decrease | IC50 (SH-SY5Y cells [6]): > 250 µM | IC50 (HepG2 cells): > 250 µM | MMP recovery (SH-SY5Y cells [12]): 10–25%

CN1C(=O)CC(c2ccccc2)=Nc2cc(F)c(F)cc21 [Compound 10, 7,8-Difluoro-1-methyl-4-phenyl-1H-1,5-benzodiazepin-2(3H)-one]
IC50 [2]: > 1000 µM | FRAP Assay Trolox Equivalents [3]: 0.01 | FRAP Assay Antioxidant Capacity (%) at 100 uM [3]: 0.3% | FRAP Assay Antioxidant Capacity (%) at 200 uM [3]: 0.6% | solubility [4]: > 200 µM | melting point: 115.8 °C | IC50 (SH-SY5Y cells [6]): 193 ± 15.9 µM | IC50 (HepG2 cells): > 250 µM

OO [Compound H2O2, hydrogen peroxide, reference compound]
H2O2 lethal dose (LD50 / EC50) (SH-SY5Y cells [1]): 250 µM | H2O2 lethal dose (LD50 / EC50), resazurin method (SH-SY5Y cells [13]): 268 µM

COc1cc(C2=Nc3cc(C)c(C)cc3NC(=O)C2)cc(OC)c1OC [Compound 21, 7,8-Dimethyl-4-(3,4,5-trimethoxyphenyl)-1H-1,5-benzodiazepin-2(3H)-one]
IC50 [2]: 137 ± 5.3 µM | ABTS Assay TEAC50 [2]: 0.36 | ABTS Assay TEAC100 [2]: 0.21 | FRAP Assay Trolox Equivalents [3]: 0.89 | FRAP Assay Antioxidant Capacity (%) at 100 uM [3]: 47.2% | FRAP Assay Antioxidant Capacity (%) at 200 uM [3]: 60.9% | solubility [4]: < 100 µM | melting point: 208.5 °C | IC50 (SH-SY5Y cells [6]): > 250 µM | IC50 (HepG2 cells): > 250 µM

Source: PMC8533176, “1,5-Benzodiazepin-2(3H)-ones: In Vitro Evaluation as Antiparkinsonian Agents” (Antioxidants, 2021)
